Source: patent US11319330B2, “Tricyclic furan-substituted piperidinedione compound” (MEDSHINE DISCOVERY INC., priority 2018, dated 2022)
Structures can show the parent of a compound that is named as a salt.

Key:
[1] = Pharmacokinetic properties of test compound in mice (oral); assay type: in vivo, C57BL male mice; conditions: mouse; for oral plasma systemic exposure (AUC0-inf), in words / pharmacokinetic properties in rodent mice, in words: oral
Source text: In this study, C57BL male mice were selected as the test animals, and the LC/MS/MS method was used to quantitatively determine the drug concentration in the plasma of the test compound and the reference compound administered orally to evaluate the pharmacokinetic profile of the test compound in mice.
[…] (C57) mice (male, 20-30 g, 7-10 weeks old, from Beijing Vital River or Shanghai SLAC).
A clear solution or suspension of the test compound was administrated to C57 mice (fasted overnight) by oral gavage. Blood was collected from jugular vein at pre-dose and 0.5, 1, 2, 4, 6, 8, 24 hours post-dose, the collected blood samples were placed in an anticoagulant tube (Jiangsu Kangjian Medical Co., Ltd.) supplemented with EDTA-K2, and the mixture was vortexed and centrifuged at 13000 rpm for 10 minutes. The LC-MS/MS method was used to determine the plasma concentration, and the relevant pharmacokinetic parameters were calculated using the non-compartmental model linear logarithmic trapezoidal method by WinNonlin™ Version 6.3 (Pharsight, Mountain View, Calif.).

[2] = tested on: OCI-LY10; test: Anti-proliferative effect in lymphoma cell line OCI-LY10 (CellTiter-Glo); assay type: cell-based; conditions: Homo sapiens, OCI-Ly10, 120 h; incubate with the compound for 5 days
Description: Experiment object: In this experiment, the inhibitory effects of the test compounds on cell proliferation in the diffuse large B-cell lymphoma cell lines OCI-LY10 and DOHH2, and the mantle cell lymphoma cell line Mino were tested.
The tumor cell lines were cultured in an incubator at 37° C. and 5% CO2 under the above-mentioned culture conditions. The cells were passaged regularly, and cells in the logarithmic growth phase were taken for plating.
(3). 90 μL of cell suspension was added to each well of the culture plate as shown in the table above, and cell-free culture solution was added to the blank control well.
(4). The culture plates were incubated overnight at 37° C., 5% CO2, and 100% relative humidity in an incubator.
A 400× compound working solution was prepared. The compound was gradually diluted with DMSO from the highest concentration to the lowest concentration. The compound was freshly formulated when use every time.
(1). Formulation of 10× compound working solution: 76 μL of cell culture solution was added to a 96-well plate with a V-shaped bottom, and 4 μL of the compound from a 200× compound solution plate was pipetted and added to the cell culture solution in the 96-well plate. 4 μL of DMSO was added to the vehicle control and blank control. After adding the compound or DMSO, a multi-channel pipette was used for mixing well. 78 μL of cell culture solution was added to a 96-well plate with a V-shaped bottom, and 2 μL of the compound from the 400× compound storage solution was pipetted and added to the cell culture solution in the 96-well plate. 2 μL of DMSO was added to the vehicle control and blank control. After adding the compound or DMSO, a multi-channel pipette was used for mixing well.
(2). Dosing: 10 μL of the 10× compound working solution was taken and added to the cell culture plate. 10 μL mixture of DMSO and cell culture solution was added to the vehicle control and blank control.
(3). The 96-well cell plates were placed back into the incubator to culture OCI-LY10 (5 times dilution, incubate with the compound for 5 days), DOHH2 (3 times dilution, incubate with the compound for 4 days), Mino (3 times dilution, incubate with the compound for 4 days).
The following steps followed the instructions of Promega CellTiter-Glo Luminescence Cell Viability Detection Kit (Promega-G7573).
(6). 50 μL (equal to half the volume of cell culture solution in each well) of CellTiter-Glo working solution was added into each well. The cell plates were wrapped with aluminum foil to protect the cell plate from light.
(9). The luminous signal was detected on the 2104 EnVision plate reader.
The following formula was used to calculate the inhibition rate (IR) of the test compound: IR (%)=(RLU of vehicle control−RLU of compound)/(RLU vehicle control−RLU blank control)*100%. […]

[3] = tested on: DOHH2; test: Anti-proliferative effect in lymphoma cell line DOHH2 (CellTiter-Glo); assay type: cell-based; conditions: Homo sapiens, DOHH-2, 96 h; incubate with the compound for 4 days
Description: (§1) Experiment object: In this experiment, the inhibitory effects of the test compounds on cell proliferation in the diffuse large B-cell lymphoma cell lines OCI-LY10 and DOHH2, and the mantle cell lymphoma cell line Mino were tested. The tumor cell lines were cultured in an incubator at 37° C. and 5% CO2 under the above-mentioned culture conditions. The cells were passaged regularly, and cells in the logarithmic growth phase were taken for plating. (3). 90 μL of cell suspension was added to each well of the culture plate as shown in the table above, and cell-free culture solution was added to the blank control well. (4). The culture plates were incubated overnight at 37° C., 5% CO2, and 100% relative humidity in an incubator. A 400× compound working solution was prepared. The compound was gradually diluted with DMSO from the highest concentration to the lowest concentration. […] The following steps followed the instructions of Promega CellTiter-Glo Luminescence Cell Viability Detection Kit (Promega-G7573). […] The luminous signal was detected on the 2104 EnVision plate reader. […] The inhibition rate of different concentrations of the compound was calculated in Excel, and then GraphPad Prism software was used to draw the inhibition curve and calculate the relevant parameters, including the minimum inhibition rate, the maximum inhibition rate and IC50.

[4] = tested on: Mino; test: Anti-proliferative effect in lymphoma cell line Mino (CellTiter-Glo); assay type: cell-based; conditions: Homo sapiens, 96 h, incubate with the compound for 4 days
Description: as §1

[5] = tested on: human lymphoma OCI-LY10 cells; test: In vivo pharmacodynamic study in subcutaneous xenograft tumor CB-17 SCID model of human lymphoma OCI-LY10 cells; design: species or system CB-17 SCID mouse
Description: Cells culture: Human lymphoma OCI-LY10 cells (National Cancer Institute) were cultured in a monolayer method in vitro (culture conditions: RPMI-1640 medium with 10% fetal bovine serum, 100 U/mL penicillin and 100 μg/mL streptomycin; 37° C., 5% CO2 incubator). Pancreatin-EDTA was used twice a week for conventional digestion and passage. When a cell saturation of 80%-90% and the required cell number were achieved, the cells were collected, counted and seeded. Animal: CB-17 SCID mouse, female, 6-8 weeks old, weighing 18-22 grams. 0.2 mL (10×10^6 cells) of OCI-LY10 cells (with matrigel in a volume ratio of 1:1) were subcutaneously inoculated on the right back of each mouse. The grouping and administration were started when the average tumor volume reached about 139 mm^3. One dosing cycle was seven days, and the compound was administered once a day with an interval of 24 hours. The test compound was administered orally for a total of four cycles. The dose of the test compound WX001 was 60 mg/kg. The tumor volume was measured twice a week with a two-dimensional caliper, expressed in cubic millimeters, and calculated by the following formula: V=0.5a×b^2, in which a and b were the long diameter and short diameter of the tumor, respectively. The anti-tumor efficacy was determined by dividing the average increase of tumor volume of animals treated with the compound by that of untreated animals. TGI: Tumor Growth Inhibition. TGI (%)=[1−(average tumor volume at the end of administration in a treatment group−average tumor volume at the beginning of administration in this treatment group)/(average tumor volume at the end of administration in the solvent control group−average tumor volume at the beginning of administration in the solvent control group)]×100%.

[6] = 60 mg/kg oral once a day, Day 27

| Structure (SMILES) | oral plasma systemic exposure (AUC0-inf), in words [1] | pharmacokinetic properties in rodent mice, in words [1] | Area under the concentration-time curve (0-inf) ([1]; oral 10 mg/kg, plasma) | IC50 [2] | also measured |
| --- | --- | --- | --- | --- | --- |
| CN(C)CCOc1ccc2cc3occ(C4CCC(=O)NC4=O)c3cc2c1 (stereo not drawn) [Hydrochloride salt of WX022] | higher | better pharmacokinetic properties | 7.42 µM·h |  |  |
| O=C1CCC(c2coc3cc4ccccc4cc23)C(=O)N1 (stereo not drawn) [WX001] |  |  |  | 28 nM | IC50 [3]: 63 nM; IC50 [4]: 72 nM; Tumor volume (Day 0) ([5]; 60 mg/kg oral once a day, Day 0, start of administration): 139 mm^3; TGI (Day 27) [5, 6]: 105.5%; Tumor volume (Day 27) [5, 6]: 87 mm^3; tumor-shrinking effect, in words ([5]; human lymphoma OCI-LY10 model): significant tumor-shrinking effect |
| O=C1CCC(c2coc3cc4c(cc23)OCO4)C(=O)N1 (stereo not drawn) [WX002] |  |  |  | 86 nM |  |
| O=C1CCC(c2coc3cc4c(cc23)OCCN4)C(=O)N1 (stereo not drawn) [WX003] |  |  |  | 83 nM |  |
| Cc1nc2cc3occ(C4CCC(=O)NC4=O)c3cc2o1 (stereo not drawn) [WX005] |  |  |  | 6 nM |  |
| O=C1CCC(c2coc3cc4ccc(OCCN5CCOCC5)cc4cc23)C(=O)N1 (stereo not drawn) [WX015] | higher | better pharmacokinetic properties | 13.29 µM·h |  | Peak concentration ([1]; oral 10 mg/kg, plasma): 5.14 µM; Time to peak ([1]; oral 10 mg/kg, plasma): 0.50 h |
